Measurements: US20230266302A1, “SYNTHESIS AND USE OF N-BENZYL SULFONAMIDES” (THE UNIVERSITY OF TULSA, priority 2020, published 2023)

Columns and labels:
Test in all cases: ATP level assay (CellTiter-Glo), percent of control
Type in all cases: cell-based
HeLa (cervical cancer) = conditions: two hour incubation; for activity at 100 µM: Homo sapiens, HeLa, 2 h, compound alone, control DMSO, read-out: POC (percent of control) HeLa
From the text: (§1) In the present method, the method of using the available assays has been modified to measure the short-term effect of compounds of interest on ATP levels in the cells. […] In the modified method, the control and test cells are initially treated with the metabolic inhibitor for a period of about thirty minutes to about four hours. Typically, the treatment of the cells with the metabolic inhibitor is for one hour prior to adding the compound to be screened for anti-cancer properties. However, simultaneous treatment with the metabolic inhibitor and the compound being screened should provide satisfactory results. […] ATP synthesis in cells occurs over multiple biochemical pathways. These pathways are very responsive to metabolic inhibitors and/or changes in available nutrients. By incorporating a metabolic inhibitor which is known to impact certain pathways, the disclosed method provides for measurement of a compound's direct effects on the remaining metabolic pathways available for ATP synthesis in the cell.
(§2) Following treatment of the control and test cells with the metabolic inhibitor, the method calls for addition of the compound to be screened for anti-cancer properties to the cells. Following addition of the compound of interest, the assay is allowed to continue for about one hour to about four hours or depending on the luminescing agent up to eighteen hours. However, approximately 60 minutes will be sufficient to determine the ATP inhibiting effect of the compound to be screened on the cells. Following completion of the selected time period, the ATP level within the cell is determined. ATP levels can be determined by luminescence according to standard measuring procedures, i.e. the luminescence level of the assay from the living cells treated with the two component composition is compared to the luminescence level of the assay from the living cells without the two component composition, i.e., the control experiment. Thus, the ATP levels are determined without killing the cells during the incubation of the cells in the presence of the compound of interest. As a result, the measured reduction in ATP level corresponds directly to the inhibition of the metabolic pathways uninhibited by the metabolic blocker.
(§3) A wide variety of ATP luminescing detection reagents are available commercially. So long as the reagent produces a luminescence in the presence of ATP, the reagent will be suitable for use in the present method. Suitable reagents include but are not limited to any ATP dependent luciferase such as but not limited to firefly luciferase, other modified luciferase based reagents, i.e. luciferase derivatives. According to the rapid method for determining the anti-cancer activity of a compound, a sample of living cells is distributed across a number of testing wells. Typically, 96-well plates are used; however, the number of wells is not critical to the current method. When using a 96-well plate the number of living cells will commonly be about 20,000. The sample wells contain a cell growth medium to promote cell health and growth and an additive to prevent bacterial contamination of the wells. One common example of the cell growth medium is DMEM with 10% FBS as described above. One example of the additive to prevent bacterial contamination is a solution of penicillin G and streptomycin referred to commonly as Pen-Strep. The Pen-Strep solution typically contains 5000 units of penicillin G and 5000 micrograms of streptomycin. Thus, the rapid determination of anti-cancer compounds can be carried out using the following method. • The desired number of cells are distributed in a 96-well plate containing 100 μL DMEM plus 10% FBS with optional Pen-Strep. • After 24 hours, cells are treated with the compound of interest or a 5% solution of dimethyl sulfoxide (DMSO) in water as a control. • The time period for exposure to the compound of interest and the DMSO control will vary depending on the luminescing detection reagent. […]

PC3 (prostate cancer) = conditions: two hour incubation; for activity at 100 µM: 2 h, compound alone, control DMSO, read-out: POC (percent of control) PC3
From the text: as §1, §2, §3

SkBr3 (breast cancer) = conditions: two hour incubation; for activity at 100 µM: Homo sapiens, SK-BR-3, 2 h, compound alone, control DMSO, read-out: POC (percent of control) SkBr3
From the text: as §1, §2, §3

NCI-H196 (lung cancer) = conditions: two hour incubation; for activity at 100 µM: NCI-H196, 2 h, compound alone, control DMSO, read-out: POC (percent of control) NCI-H196
From the text: as §1, §2, §3

H293 (kidney cancer) = conditions: two hour incubation; for activity at 100 µM: 2 h, compound alone, control DMSO, read-out: POC (percent of control) H293
From the text: as §1, §2, §3

MDA-MB (breast cancer) = conditions: two hour incubation; for activity at 100 µM: 2 h, compound alone, control DMSO, read-out: POC (percent of control) MDA-MB
From the text: as §1, §2, §3

T47D (breast cancer) = conditions: two hour incubation; for activity at 100 µM: Homo sapiens, T47D, 2 h, compound alone, control DMSO, read-out: POC (percent of control) T47D
From the text: as §1, §2, §3

[1] = tested on: MCF10A (non-cancerous breast); conditions: two hour incubation; for activity at 100 µM: Homo sapiens, MCF-10A, 2 h, compound alone, control DMSO, read-out: POC (percent of control) MCF10A
From the text: as §1, §2, §3

MCF7 (breast cancer) = conditions: two hour incubation; for activity at 100 µM: Homo sapiens, MCF7, 2 h, compound alone, control DMSO, read-out: POC (percent of control) MCF7
From the text: as §1, §2, §3

HDF (normal cells) = conditions: two hour incubation; for activity at 100 µM: 2 h, compound alone, control DMSO, read-out: POC (percent of control) HDF
From the text: as §1, §2, §3

[2] = tested on: BxPC3 (pancreatic cancer); conditions: two hour incubation; for activity at 100 µM: Homo sapiens, BXPC-3, 2 h, compound alone, control DMSO, read-out: POC (percent of control) BxPC3
From the text: as §1, §2, §3

[3] = compound 100 uM + 2DG (about 10-20 mM)
[4] = compound 100 uM + rotenone (approximately 1.25 μM)

Structure (SMILES) | activity at 100 µM (HeLa (cervical cancer)) [%] | POC (percent of control) HeLa (HeLa (cervical cancer); [3]) | POC (percent of control) HeLa (HeLa (cervical cancer); [4]) | activity at 100 µM (PC3 (prostate cancer)) [%] | POC (percent of control) PC3 (PC3 (prostate cancer); [3]) | POC (percent of control) PC3 (PC3 (prostate cancer); [4]) | activity at 100 µM (SkBr3 (breast cancer)) [%] | POC (percent of control) SkBr3 (SkBr3 (breast cancer); [3]) | POC (percent of control) SkBr3 (SkBr3 (breast cancer); [4]) | activity at 100 µM (NCI-H196 (lung cancer)) [%] | POC (percent of control) NCI-H196 (NCI-H196 (lung cancer); [3]) | POC (percent of control) NCI-H196 (NCI-H196 (lung cancer); [4]) | activity at 100 µM (H293 (kidney cancer)) [%] | POC (percent of control) H293 (H293 (kidney cancer); [3]) | POC (percent of control) H293 (H293 (kidney cancer); [4]) | activity at 100 µM (MDA-MB (breast cancer)) [%] | POC (percent of control) MDA-MB (MDA-MB (breast cancer); [3]) | POC (percent of control) MDA-MB (MDA-MB (breast cancer); [4]) | activity at 100 µM (T47D (breast cancer)) [%] | POC (percent of control) T47D (T47D (breast cancer); [3]) | also measured
O=S(=O)(NCc1c[nH]c2cccc(Br)c12)c1ccc(Cl)cc1 [Compound 27, N-[(4-bromo-1H-indol-3-yl)methyl]-4-chlorobenzenesulfonamide] | 58.3 | 104.3% of control | 73.3% of control | 43.1 | 15.2% of control | 27.2% of control | 95.6 | 62.4% of control | 66% of control | 150 | 117.2% of control | 16.7% of control | 67 | 30.4% of control | 27.3% of control | 62.6 | 27.3% of control | 37.3% of control | 33.9 | 103.1% of control | POC (percent of control) T47D (T47D (breast cancer); [4]): 103.8% of control; activity at 100 µM [1]: 58.9%; POC (percent of control) MCF10A [1, 3]: 27.1% of control; POC (percent of control) MCF10A [1, 4]: 30.2% of control; activity at 100 µM (MCF7 (breast cancer)): 82.9%; POC (percent of control) MCF7 (MCF7 (breast cancer); [3]): 50.2% of control; POC (percent of control) MCF7 (MCF7 (breast cancer); [4]): 61.1% of control; activity at 100 µM (HDF (normal cells)): 65%; POC (percent of control) HDF (HDF (normal cells); [3]): 38% of control; POC (percent of control) HDF (HDF (normal cells); [4]): 66.6% of control; activity at 100 µM [2]: 42.8%; POC (percent of control) BxPC3 [2, 3]: 14.2% of control; POC (percent of control) BxPC3 [2, 4]: 15.8% of control
Cc1cccc2[nH]cc(CNS(=O)(=O)c3ccccc3)c12 [Compound 7, N-[(4-methyl-1H-indol-3-yl)methyl]benzenesulfonamide] | 91 | 70.6% of control | 79.5% of control | 95 | 59.4% of control | 82% of control | 108 | 76.2% of control | 88.2% of control | 84.9 | 70.1% of control | 77.7% of control | 93.2 | 60.9% of control | 65.3% of control | 85.6 | 81.2% of control | 102.4% of control | 46.5 | 40.1% of control | POC (percent of control) T47D (T47D (breast cancer); [4]): 66% of control; activity at 100 µM [1]: 66%; POC (percent of control) MCF10A [1, 3]: 64.5% of control; POC (percent of control) MCF10A [1, 4]: 97.9% of control; activity at 100 µM (MCF7 (breast cancer)): 107%; POC (percent of control) MCF7 (MCF7 (breast cancer); [3]): 91.6% of control; POC (percent of control) MCF7 (MCF7 (breast cancer); [4]): 75.9% of control; activity at 100 µM (HDF (normal cells)): 87.7%; POC (percent of control) HDF (HDF (normal cells); [3]): 60.8% of control; POC (percent of control) HDF (HDF (normal cells); [4]): 77.9% of control; activity at 100 µM [2]: 86.3%; POC (percent of control) BxPC3 [2, 3]: 60.9% of control; POC (percent of control) BxPC3 [2, 4]: 79.1% of control
CC(=O)n1cc(CNS(=O)(=O)c2ccc(Cl)cc2)c2ccccc21 [Compound 4, N-[(1-acetyl-1H-indole-3-yl)methyl]-4-chlorobenzenesulfonamide] | 90.6 | 67.4% of control | 84.3% of control | 93.7 | 61.9% of control | 61.3% of control | 79.1 | 87.5% of control | 96.8% of control | 72.5 | 49.6% of control | 61.5% of control | 88.6 | 60% of control | 65.8% of control | 94.7 | 63.6% of control | 71.9% of control | 48.9 | 36.3% of control | POC (percent of control) T47D (T47D (breast cancer); [4]): 45.8% of control; activity at 100 µM [1]: 59.7%; POC (percent of control) MCF10A [1, 3]: 84.8% of control; POC (percent of control) MCF10A [1, 4]: 89.8% of control; activity at 100 µM (MCF7 (breast cancer)): 108%; POC (percent of control) MCF7 (MCF7 (breast cancer); [3]): 82.2% of control; POC (percent of control) MCF7 (MCF7 (breast cancer); [4]): 79.2% of control; activity at 100 µM (HDF (normal cells)): 88.1%; POC (percent of control) HDF (HDF (normal cells); [3]): 66.8% of control; POC (percent of control) HDF (HDF (normal cells); [4]): 88.6% of control; activity at 100 µM [2]: 88.4%; POC (percent of control) BxPC3 [2, 4]: 71.1% of control
